Data published in ChEMBL document CHEMBL1201862, “PubChem BioAssay data set” (2004).
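Exposure lasted 48 hours, with cells grown in 96-well plates and compounds tested at five concentrations. The concentration for 50% growth inhibition is given as GI50.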 Active and inactive are the calls of the source. No stated cut-off is given here; in the data, active = GI50 up to about 1.1 µM and inactive = higher.

What was measured:
Assay in all cases: inhibition of tumour cell growth, NCI panel, 48 h
OVCAR-4 = system: OVCAR-4
MOLT-4 = system: MOLT-4
UACC-257 = system: UACC-257
NCI/ADR-RES = system: NCI/ADR-RES
BT-549 = system: BT-549
MDA-MB-231 = system: MDA-MB-231
M14 = system: M14
T47D = system: T47D
SF-268 = system: SF-268
MDA-MB-435 = system: MDA-MB-435
HL-60 = system: HL-60
UACC-62 = system: UACC-62
DU-145 = system: DU-145
UO-31 = system: UO-31
MCF7 = system: MCF7
LOX IMVI = system: LOX IMVI
TK-10 = system: TK-10
SW-620 = system: SW-620
SK-MEL-5 = system: SK-MEL-5
SF-295 = system: SF-295
HOP-62 = system: HOP-62
HOP-92 = system: HOP-92
SNB-19 = system: SNB-19
SR = system: SR
SNB-75 = system: SNB-75
RPMI-8226 = system: RPMI-8226
CCRF-CEM = system: CCRF-CEM
MDA-N = system: MDA-N
SF-539 = system: SF-539
K562 = system: K562
NCI-H23 = system: NCI-H23
SN12C = system: SN12C
IGROV-1 = system: IGROV-1
OVCAR-3 = system: OVCAR-3
OVCAR-8 = system: OVCAR-8
OVCAR-5 = system: OVCAR-5
A549 = system: A549
COLO 205 = system: COLO 205
HT-29 = system: HT-29
HCC 2998 = system: HCC 2998
NCI-H460 = system: NCI-H460
EKVX = system: EKVX
HCT-116 = system: HCT-116
U-251 = system: U-251
SK-MEL-28 = system: SK-MEL-28
HCT-15 = system: HCT-15
PC-3 = system: PC-3
NCI-H522 = system: NCI-H522
786-0 = system: 786-0
KM12 = system: KM12
CAKI-1 = system: CAKI-1
Hs-578T = system: Hs-578T
SK-OV-3 = system: SK-OV-3
ACHN = system: ACHN
RXF 393 = system: RXF 393
SK-MEL-2 = system: SK-MEL-2
Malme-3M = system: Malme-3M

Cc1cccc2c1Oc1cc(Cl)ccc1C2NC(=O)CCN1CCCCC1 (configuration not stated) was tested, and the GI50 (OVCAR-4) was 15.3 µM (inactive), the GI50 (MOLT-4) was 16.1 µM (inactive) and the GI50 (UACC-257) was 16 µM (inactive). The GI50 (NCI/ADR-RES) was 15.5 µM (inactive), the GI50 (BT-549) was 18.7 µM (inactive) and the GI50 (MDA-MB-231) was 20.6 µM (inactive). The GI50 (M14) was 17.7 µM (inactive), the GI50 (T47D) was 13.1 µM (inactive) and the GI50 (SF-268) was 26.2 µM (inactive). The GI50 (MDA-MB-435) was 16 µM (inactive), the GI50 (HL-60) was 15.7 µM (inactive) and the GI50 (UACC-62) was 14.7 µM (inactive). For the same compound, the GI50 (DU-145) was > 10 µM (inactive), the GI50 (UO-31) was 15.4 µM (inactive) and the GI50 (MCF7) was 17.5 µM (inactive). For the same compound, the GI50 (LOX IMVI) was 15.6 µM (inactive), the GI50 (TK-10) was 15.8 µM (inactive) and the GI50 (SW-620) was 17.8 µM (inactive). The GI50 (SK-MEL-5) was 14.9 µM (inactive), the GI50 (SF-295) was 18.8 µM (inactive) and the GI50 (HOP-62) was 14.3 µM (inactive). The GI50 (HOP-92) was 2.02 µM (inactive), the GI50 (SNB-19) was 17.5 µM (inactive) and the GI50 (SR) was 16.2 µM (inactive). For the same compound, the GI50 (SNB-75) was 14.5 µM (inactive), the GI50 (RPMI-8226) was 25 µM (inactive) and the GI50 (CCRF-CEM) was 16 µM (inactive). For the same compound, the GI50 (MDA-N) was 16.3 µM (inactive), the GI50 (SF-539) was 16.7 µM (inactive) and the GI50 (K562) was 15.1 µM (inactive). For the same compound, the GI50 (NCI-H23) was 19.1 µM (inactive), the GI50 (SN12C) was 17.3 µM (inactive) and the GI50 (IGROV-1) was > 10 µM (inactive). The GI50 (OVCAR-3) was > 10 µM (inactive), the GI50 (OVCAR-8) was 16.3 µM (inactive) and the GI50 (OVCAR-5) was 17.8 µM (inactive). The GI50 (A549) was 18.7 µM (inactive), the GI50 (COLO 205) was 15 µM (inactive) and the GI50 (HT-29) was 12.6 µM (inactive). The GI50 (HCC 2998) was 15 µM (inactive), the GI50 (NCI-H460) was 16.5 µM (inactive) and the GI50 (EKVX) was 20.7 µM (inactive). For the same compound, the GI50 (HCT-116) was 15.9 µM (inactive), the GI50 (U-251) was 15.6 µM (inactive) and the GI50 (SK-MEL-28) was 15.6 µM (inactive). For the same compound, the GI50 (HCT-15) was 17.7 µM, the GI50 (PC-3) was 14.6 µM (inactive) and the GI50 (NCI-H522) was 16.9 µM (inactive). The GI50 (786-0) was 14.8 µM (inactive) and the GI50 (KM12) was 16.3 µM (inactive).
For NC(=O)C(N)CC12CC3CC(CC(C3)C1)C2 (configuration not stated), the GI50 (OVCAR-4) was 17.5 µM (inactive), the GI50 (CAKI-1) was 27.3 µM (inactive) and the GI50 (MOLT-4) was 21 µM (inactive). The GI50 (Hs-578T) was 19.1 µM (inactive), the GI50 (UACC-257) was 27.9 µM (inactive) and the GI50 (NCI/ADR-RES) was 25.2 µM (inactive). The GI50 (MDA-MB-231) was 14 µM (inactive), the GI50 (M14) was 19.3 µM (inactive) and the GI50 (SF-268) was 22.4 µM (inactive). For the same compound, the GI50 (SK-OV-3) was 33.3 µM (inactive), the GI50 (MDA-MB-435) was 16 µM (inactive) and the GI50 (UACC-62) was 14.5 µM (inactive). For the same compound, the GI50 (DU-145) was 12.6 µM (inactive), the GI50 (UO-31) was 21.7 µM (inactive) and the GI50 (MCF7) was 20 µM (inactive). For the same compound, the GI50 (LOX IMVI) was 16 µM (inactive), the GI50 (TK-10) was 29.6 µM (inactive) and the GI50 (ACHN) was 32.4 µM (inactive). The GI50 (SW-620) was 33 µM (inactive), the GI50 (SK-MEL-5) was 15.2 µM (inactive) and the GI50 (SF-295) was 23.3 µM (inactive). For the same compound, the GI50 (HOP-92) was 15.5 µM (inactive), the GI50 (SNB-19) was 23.7 µM (inactive) and the GI50 (SR) was 17.2 µM (inactive). The GI50 (SNB-75) was 32.7 µM (inactive), the GI50 (RPMI-8226) was 19.6 µM (inactive) and the GI50 (CCRF-CEM) was 26.7 µM (inactive). The GI50 (MDA-N) was 13.6 µM (inactive), the GI50 (K562) was 28.9 µM (inactive) and the GI50 (NCI-H23) was 25.4 µM (inactive). The GI50 (SN12C) was 21 µM (inactive), the GI50 (IGROV-1) was > 10 µM (inactive) and the GI50 (OVCAR-8) was 23.9 µM (inactive). The GI50 (OVCAR-5) was 22.8 µM (inactive), the GI50 (A549) was 45.6 µM (inactive) and the GI50 (HT-29) was 28.1 µM (inactive). The GI50 (HCC 2998) was 21.6 µM (inactive), the GI50 (NCI-H460) was 34.4 µM (inactive) and the GI50 (EKVX) was 29.6 µM (inactive). For the same compound, the GI50 (RXF 393) was 16.3 µM (inactive), the GI50 (HCT-116) was 17 µM (inactive) and the GI50 (U-251) was 17.5 µM (inactive). The GI50 (SK-MEL-28) was 20.1 µM (inactive), the GI50 (HCT-15) was 31.6 µM and the GI50 (PC-3) was 18.2 µM (inactive). For the same compound, the GI50 (NCI-H522) was 15 µM (inactive), the GI50 (786-0) was 22.3 µM (inactive) and the GI50 (KM12) was 20.1 µM (inactive). For the same compound, the GI50 (SK-MEL-2) was 24.6 µM (inactive).
With CC1(C)[C@H](O)CC[C@]2(C)C3=CC[C@@]4(C)[C@@H]5C[C@](C)(CO)CC[C@]5(C)CC[C@]4(C)C3=CC[C@@H]12 the GI50 (MOLT-4) was > 100 µM (inactive), the GI50 (UACC-257) was > 100 µM (inactive) and the GI50 (BT-549) was > 100 µM (inactive). The GI50 (M14) was > 100 µM (inactive), the GI50 (SF-268) was > 100 µM (inactive) and the GI50 (SK-OV-3) was > 100 µM (inactive). The GI50 (HL-60) was > 100 µM (inactive), the GI50 (UACC-62) was > 100 µM (inactive) and the GI50 (DU-145) was > 100 µM (inactive). The GI50 (UO-31) was 1.98 µM (inactive), the GI50 (MCF7) was > 100 µM (inactive) and the GI50 (ACHN) was 2.13 µM (inactive). The GI50 (SK-MEL-5) was > 100 µM (inactive), the GI50 (HOP-62) was > 100 µM (inactive) and the GI50 (HOP-92) was > 100 µM (inactive). For the same compound, the GI50 (SR) was 1.75 µM (inactive), the GI50 (CCRF-CEM) was 1.63 µM (inactive) and the GI50 (Malme-3M) was > 100 µM (inactive). The GI50 (MDA-N) was > 100 µM (inactive), the GI50 (NCI-H23) was > 100 µM (inactive) and the GI50 (SN12C) was 2.1 µM (inactive). For the same compound, the GI50 (IGROV-1) was > 100 µM (inactive), the GI50 (OVCAR-3) was 1.79 µM (inactive) and the GI50 (OVCAR-8) was 2.07 µM (inactive). For the same compound, the GI50 (OVCAR-5) was > 100 µM (inactive), the GI50 (A549) was 1.75 µM (inactive) and the GI50 (COLO 205) was 3.23 µM (inactive). The GI50 (NCI-H460) was 1.91 µM (inactive), the GI50 (EKVX) was > 100 µM (inactive) and the GI50 (HCT-116) was 2.01 µM (inactive). The GI50 (U-251) was 1.84 µM (inactive), the GI50 (SK-MEL-28) was > 100 µM (inactive) and the GI50 (SK-MEL-2) was > 100 µM (inactive).
